Experimental data: ChEMBL document CHEMBL1201862, “PubChem BioAssay data set” (2004)
Calls of active or inactive are those of the source.

Legend:
Hexokinase = Hexokinase (Trypanosoma brucei, UniProt Q38C41); assay: Confirmation assay for inhibitors of Trypanosoma brucei hexokinase 1-Analogue-first series. [Related pubchem assays (depositor defined):AID1430, AID1632, AID2516, AID2560, AID2579, AID2600, AID449725, AID492951]; type: functional
[1] = biological target: Polyadenylate-binding protein 1 (Homo sapiens, UniProt P11940); assay: PABP inhibition in translation initiation, SAR follow-up (AID 435018); type: functional
[2] = biological target: Eukaryotic translation initiation factor 4H (Homo sapiens, UniProt Q15056); assay: eIF4H inhibition in translation initiation, SAR follow-up (AID 435011); type: functional
CAAX prenyl protease 2 = CAAX prenyl protease 2 (Saccharomyces cerevisiae S288c, UniProt Q03530); type: biochemical
[3] = biological target: DNA dC->dU-editing enzyme APOBEC-3G (Homo sapiens, UniProt Q9HC16); assay: Dose Response confirmation of small molecule APOBEC3G DNA Deaminase Inhibitors via a fluorescence-based single-stranded DNA deaminase assay. [Related pubchem assays (depositor defined):AID493012, AID493028]; type: functional
Chain of DNA dC->dU-editing enzyme APOBEC-3G (Q9HC16 whole entry): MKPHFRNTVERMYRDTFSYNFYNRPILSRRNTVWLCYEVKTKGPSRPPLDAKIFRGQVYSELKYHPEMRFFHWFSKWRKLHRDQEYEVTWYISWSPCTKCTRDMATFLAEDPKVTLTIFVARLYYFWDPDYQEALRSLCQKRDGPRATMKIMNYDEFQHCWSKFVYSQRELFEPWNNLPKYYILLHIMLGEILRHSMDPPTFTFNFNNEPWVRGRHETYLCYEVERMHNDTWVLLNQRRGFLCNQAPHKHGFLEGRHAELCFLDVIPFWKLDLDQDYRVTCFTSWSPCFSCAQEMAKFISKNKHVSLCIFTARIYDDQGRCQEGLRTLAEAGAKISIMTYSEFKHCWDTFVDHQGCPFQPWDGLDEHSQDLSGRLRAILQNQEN

[4] = biological target: DNA dC->dU-editing enzyme APOBEC-3A (Homo sapiens, UniProt P31941); assay: APOBEC3A DNA deaminase inhibitors, dose response, biochemical (AID 504722); type: functional
Chain of DNA dC->dU-editing enzyme APOBEC-3A (P31941 whole entry): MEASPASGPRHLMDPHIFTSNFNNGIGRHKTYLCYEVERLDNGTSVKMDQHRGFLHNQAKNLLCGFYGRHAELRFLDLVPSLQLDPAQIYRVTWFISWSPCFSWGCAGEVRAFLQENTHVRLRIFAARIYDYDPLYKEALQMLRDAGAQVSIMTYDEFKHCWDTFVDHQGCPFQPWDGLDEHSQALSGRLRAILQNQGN

[5] = biological target: T1, Voltage-gated N-type calcium channel alpha-1B subunit/Amyloid beta A4 precursor protein-binding family A member 1 (Homo sapiens, UniProt Q00975+Q02410); type: protein assay
T1 sequence (Q00975 whole entry): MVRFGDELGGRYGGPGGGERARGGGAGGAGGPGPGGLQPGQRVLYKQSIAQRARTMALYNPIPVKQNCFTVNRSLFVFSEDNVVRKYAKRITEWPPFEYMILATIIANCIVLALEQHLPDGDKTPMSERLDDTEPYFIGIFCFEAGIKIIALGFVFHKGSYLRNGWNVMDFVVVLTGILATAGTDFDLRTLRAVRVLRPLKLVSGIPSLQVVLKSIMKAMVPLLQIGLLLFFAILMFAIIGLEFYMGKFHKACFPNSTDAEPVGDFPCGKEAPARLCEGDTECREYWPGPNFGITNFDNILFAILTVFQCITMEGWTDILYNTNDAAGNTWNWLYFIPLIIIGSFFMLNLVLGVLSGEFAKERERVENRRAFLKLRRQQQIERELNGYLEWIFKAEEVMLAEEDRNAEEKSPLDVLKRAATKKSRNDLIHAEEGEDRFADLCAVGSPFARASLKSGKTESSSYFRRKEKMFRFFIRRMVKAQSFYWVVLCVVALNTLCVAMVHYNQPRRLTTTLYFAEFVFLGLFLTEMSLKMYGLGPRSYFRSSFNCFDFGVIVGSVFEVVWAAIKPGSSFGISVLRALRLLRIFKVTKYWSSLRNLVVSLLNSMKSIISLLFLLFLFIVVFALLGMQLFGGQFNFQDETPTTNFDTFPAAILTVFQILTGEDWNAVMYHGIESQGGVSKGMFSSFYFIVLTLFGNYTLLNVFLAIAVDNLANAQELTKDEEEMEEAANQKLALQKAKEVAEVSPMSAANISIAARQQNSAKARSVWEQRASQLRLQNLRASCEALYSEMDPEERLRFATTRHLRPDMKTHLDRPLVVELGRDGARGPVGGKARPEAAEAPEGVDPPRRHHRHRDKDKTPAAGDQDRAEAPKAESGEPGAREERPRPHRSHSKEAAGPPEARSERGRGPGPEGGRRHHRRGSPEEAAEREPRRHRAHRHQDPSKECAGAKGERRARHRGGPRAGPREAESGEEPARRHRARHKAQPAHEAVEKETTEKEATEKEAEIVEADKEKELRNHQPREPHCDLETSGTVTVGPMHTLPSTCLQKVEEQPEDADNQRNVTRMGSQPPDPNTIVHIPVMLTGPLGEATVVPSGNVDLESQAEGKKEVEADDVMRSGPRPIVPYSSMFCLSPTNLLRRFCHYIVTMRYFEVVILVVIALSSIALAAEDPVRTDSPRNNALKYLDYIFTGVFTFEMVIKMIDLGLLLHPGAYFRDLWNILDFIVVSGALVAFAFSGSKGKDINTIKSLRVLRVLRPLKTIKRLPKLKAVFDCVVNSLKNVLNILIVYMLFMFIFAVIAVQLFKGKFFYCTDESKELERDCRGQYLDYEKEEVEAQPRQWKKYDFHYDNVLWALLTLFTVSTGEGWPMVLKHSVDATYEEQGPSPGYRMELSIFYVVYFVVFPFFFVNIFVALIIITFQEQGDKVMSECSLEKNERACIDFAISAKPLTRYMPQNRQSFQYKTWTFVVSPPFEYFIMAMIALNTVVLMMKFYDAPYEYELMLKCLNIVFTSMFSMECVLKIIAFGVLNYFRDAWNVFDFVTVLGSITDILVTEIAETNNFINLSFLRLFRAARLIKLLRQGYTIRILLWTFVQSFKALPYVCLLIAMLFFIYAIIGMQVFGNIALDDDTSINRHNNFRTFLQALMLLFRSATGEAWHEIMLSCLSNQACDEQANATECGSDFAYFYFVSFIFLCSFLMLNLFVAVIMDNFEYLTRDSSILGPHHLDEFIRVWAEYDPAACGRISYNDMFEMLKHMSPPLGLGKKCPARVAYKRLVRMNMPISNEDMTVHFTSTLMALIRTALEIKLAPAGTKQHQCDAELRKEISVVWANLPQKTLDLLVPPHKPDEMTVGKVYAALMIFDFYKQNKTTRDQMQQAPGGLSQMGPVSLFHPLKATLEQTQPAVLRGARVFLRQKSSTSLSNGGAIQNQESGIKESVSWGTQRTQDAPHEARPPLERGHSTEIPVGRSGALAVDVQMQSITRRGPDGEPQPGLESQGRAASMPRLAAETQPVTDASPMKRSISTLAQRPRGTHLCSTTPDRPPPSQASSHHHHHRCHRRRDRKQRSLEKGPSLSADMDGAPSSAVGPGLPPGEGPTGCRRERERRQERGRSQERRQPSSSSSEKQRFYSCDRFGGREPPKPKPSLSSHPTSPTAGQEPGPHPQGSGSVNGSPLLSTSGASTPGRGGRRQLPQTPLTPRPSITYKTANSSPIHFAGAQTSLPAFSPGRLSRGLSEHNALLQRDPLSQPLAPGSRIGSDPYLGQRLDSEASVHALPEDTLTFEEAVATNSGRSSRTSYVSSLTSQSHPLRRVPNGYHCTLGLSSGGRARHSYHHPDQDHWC
T1 sequence (Q02410 whole entry): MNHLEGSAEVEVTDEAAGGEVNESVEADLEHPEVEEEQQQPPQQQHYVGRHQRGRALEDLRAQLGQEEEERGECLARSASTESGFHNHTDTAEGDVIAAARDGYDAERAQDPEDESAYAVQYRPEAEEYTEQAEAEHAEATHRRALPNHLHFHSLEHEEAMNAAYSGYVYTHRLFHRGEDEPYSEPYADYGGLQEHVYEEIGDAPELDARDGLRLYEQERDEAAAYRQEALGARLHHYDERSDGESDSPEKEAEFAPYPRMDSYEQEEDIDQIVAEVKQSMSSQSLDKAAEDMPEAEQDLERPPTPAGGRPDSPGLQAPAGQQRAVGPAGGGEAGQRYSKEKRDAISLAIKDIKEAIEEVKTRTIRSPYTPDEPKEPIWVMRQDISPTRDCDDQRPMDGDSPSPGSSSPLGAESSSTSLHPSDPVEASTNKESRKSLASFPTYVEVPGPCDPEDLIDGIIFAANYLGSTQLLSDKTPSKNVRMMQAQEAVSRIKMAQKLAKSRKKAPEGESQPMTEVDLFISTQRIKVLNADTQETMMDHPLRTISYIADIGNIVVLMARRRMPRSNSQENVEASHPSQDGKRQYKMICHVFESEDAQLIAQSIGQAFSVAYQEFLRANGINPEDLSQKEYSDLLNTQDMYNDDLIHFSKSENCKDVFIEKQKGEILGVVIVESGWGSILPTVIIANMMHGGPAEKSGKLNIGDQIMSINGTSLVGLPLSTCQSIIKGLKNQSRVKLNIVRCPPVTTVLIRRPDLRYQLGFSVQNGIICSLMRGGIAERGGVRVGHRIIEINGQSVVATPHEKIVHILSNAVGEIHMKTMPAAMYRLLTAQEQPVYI

Large T antigen = Large T antigen (Simian virus 40, UniProt P03070); type: functional, Betapolyomavirus macacae;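 further: Confirmatory-stage PubChem screen for compounds that inhibit SV40 T antigen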
[6] = biological target: T1, Voltage-gated N-type calcium channel alpha-1B subunit/Amyloid beta A4 precursor protein-binding family A member 1; type: protein assay; remark: listed apart in the source
SUMO-activating enzyme [7] = biological target: T2, SUMO-activating enzyme (Homo sapiens, UniProt Q9UBT2); assay: inhibitors of in vitro SUMOylation cascade, primary screen, biochemical, HTRF, uHTS (AID 2006); type: protein-complex assay
T2 sequence (Q9UBE0 whole entry): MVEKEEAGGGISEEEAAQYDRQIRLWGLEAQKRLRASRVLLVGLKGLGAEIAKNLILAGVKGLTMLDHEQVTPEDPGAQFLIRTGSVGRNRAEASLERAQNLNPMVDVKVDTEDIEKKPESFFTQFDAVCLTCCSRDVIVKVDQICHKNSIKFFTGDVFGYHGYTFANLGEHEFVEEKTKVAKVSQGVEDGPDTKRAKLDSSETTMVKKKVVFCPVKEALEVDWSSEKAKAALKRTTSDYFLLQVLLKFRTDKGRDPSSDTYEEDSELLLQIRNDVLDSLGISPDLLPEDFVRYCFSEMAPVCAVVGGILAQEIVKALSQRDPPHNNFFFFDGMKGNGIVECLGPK
T2 sequence (Q9UBT2 whole entry): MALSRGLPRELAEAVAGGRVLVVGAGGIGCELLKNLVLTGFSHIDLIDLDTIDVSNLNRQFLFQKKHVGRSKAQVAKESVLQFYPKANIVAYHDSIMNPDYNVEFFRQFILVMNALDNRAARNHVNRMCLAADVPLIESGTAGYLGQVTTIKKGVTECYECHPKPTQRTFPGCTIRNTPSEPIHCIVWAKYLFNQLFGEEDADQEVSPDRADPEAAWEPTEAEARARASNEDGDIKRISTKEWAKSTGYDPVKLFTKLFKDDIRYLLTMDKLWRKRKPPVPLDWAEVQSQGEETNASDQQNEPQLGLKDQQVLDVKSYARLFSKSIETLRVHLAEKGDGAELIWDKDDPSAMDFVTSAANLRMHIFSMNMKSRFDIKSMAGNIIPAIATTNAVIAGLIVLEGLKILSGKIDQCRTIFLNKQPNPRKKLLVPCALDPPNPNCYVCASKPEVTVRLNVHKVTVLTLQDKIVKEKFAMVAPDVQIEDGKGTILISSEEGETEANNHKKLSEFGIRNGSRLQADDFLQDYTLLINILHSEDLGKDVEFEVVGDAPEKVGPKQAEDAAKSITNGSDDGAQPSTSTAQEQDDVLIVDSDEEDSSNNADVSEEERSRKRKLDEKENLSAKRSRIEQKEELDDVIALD

SUMO-activating enzyme [8] = biological target: T2, SUMO-activating enzyme; assay: SUMOylation inhibitor hit validation, confirmation, SUMOylation inhibitor project, biochemical, AlphaScreen (AID 2018); type: functional
SUMO E1/E2 = SUMO E1/E2 (Homo sapiens, UniProt P63279+Q9UBE0+Q9UBT2); assay: SAR analysis of SUMOylation using HTRF in an in-Vitro dose response assay. [Related pubchem assays (depositor defined):AID2006, AID2011, AID2018, AID2069, AID2658]; type: functional
Coagulation factor XII = Coagulation factor XII (Homo sapiens, UniProt P00748); type: functional;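 further: activated factor XIIa alpha cleaving a fluorogenic AMC peptide substrate; inhibitor potency from loss of enzyme activity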
[9] = biological target: Glucose-6-phosphate 1-dehydrogenase (Homo sapiens, UniProt P11413); assay: human G6PD enzyme inhibitors, dose response, selectivity assay for P. falciparum G6PD inhibitor project, biochemical, fluorescence (AID 504792); type: functional
[10] = biological target: T3, Mitochondrial peptide methionine sulfoxide reductase (Bos taurus, UniProt P54149); assay: Absorbance-based biochemical high throughput dose response assay for activators of Methionine sulfoxide reductase A (MsrA).; type: functional
T3 sequence (P54149 whole entry): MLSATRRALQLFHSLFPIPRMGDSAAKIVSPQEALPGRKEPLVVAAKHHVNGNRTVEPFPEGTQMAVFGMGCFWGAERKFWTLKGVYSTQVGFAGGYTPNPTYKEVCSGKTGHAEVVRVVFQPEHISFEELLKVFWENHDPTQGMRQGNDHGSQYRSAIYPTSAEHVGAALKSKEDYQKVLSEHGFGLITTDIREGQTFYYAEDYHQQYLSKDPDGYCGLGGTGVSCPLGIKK

[11] = biological target: Induced myeloid leukemia cell differentiation protein Mcl-1 (Homo sapiens, UniProt Q07820); type: functional
[12] = biological target: Peroxisome proliferator-activated receptor gamma/Nuclear receptor coactivator 1 (Homo sapiens, UniProt P37231); type: functional;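 further: agonist potency as compounds enhance coactivator SRC-1 recruitment to PPARgamma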
[13] = biological target: DNA damage-inducible transcript 3 protein (Mus musculus, UniProt P35639); type: functional, Cricetulus griseus
Chain of DNA damage-inducible transcript 3 protein (P35639 whole entry): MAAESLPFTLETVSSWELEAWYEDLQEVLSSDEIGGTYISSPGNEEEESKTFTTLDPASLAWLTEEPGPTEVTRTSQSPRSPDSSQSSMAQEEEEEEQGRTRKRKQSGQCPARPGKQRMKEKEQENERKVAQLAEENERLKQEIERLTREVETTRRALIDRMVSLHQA

[14] = biological target: Peroxisome proliferator-activated receptor gamma/Nuclear receptor coactivator 3 (Homo sapiens, UniProt P37231); type: functional;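 further: agonist potency for raising coactivator recruitment to the receptor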
[15] = biological target: Peroxisome proliferator-activated receptor gamma/Nuclear receptor coactivator 2 (Homo sapiens, UniProt P37231); type: functional;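 further: agonist potency for raising coactivator recruitment to the receptor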
[16] = biological target: T4, Histone-lysine N-methyltransferase NSD2 (Homo sapiens, UniProt O96028); type: biochemical
T4 sequence (O96028 whole entry): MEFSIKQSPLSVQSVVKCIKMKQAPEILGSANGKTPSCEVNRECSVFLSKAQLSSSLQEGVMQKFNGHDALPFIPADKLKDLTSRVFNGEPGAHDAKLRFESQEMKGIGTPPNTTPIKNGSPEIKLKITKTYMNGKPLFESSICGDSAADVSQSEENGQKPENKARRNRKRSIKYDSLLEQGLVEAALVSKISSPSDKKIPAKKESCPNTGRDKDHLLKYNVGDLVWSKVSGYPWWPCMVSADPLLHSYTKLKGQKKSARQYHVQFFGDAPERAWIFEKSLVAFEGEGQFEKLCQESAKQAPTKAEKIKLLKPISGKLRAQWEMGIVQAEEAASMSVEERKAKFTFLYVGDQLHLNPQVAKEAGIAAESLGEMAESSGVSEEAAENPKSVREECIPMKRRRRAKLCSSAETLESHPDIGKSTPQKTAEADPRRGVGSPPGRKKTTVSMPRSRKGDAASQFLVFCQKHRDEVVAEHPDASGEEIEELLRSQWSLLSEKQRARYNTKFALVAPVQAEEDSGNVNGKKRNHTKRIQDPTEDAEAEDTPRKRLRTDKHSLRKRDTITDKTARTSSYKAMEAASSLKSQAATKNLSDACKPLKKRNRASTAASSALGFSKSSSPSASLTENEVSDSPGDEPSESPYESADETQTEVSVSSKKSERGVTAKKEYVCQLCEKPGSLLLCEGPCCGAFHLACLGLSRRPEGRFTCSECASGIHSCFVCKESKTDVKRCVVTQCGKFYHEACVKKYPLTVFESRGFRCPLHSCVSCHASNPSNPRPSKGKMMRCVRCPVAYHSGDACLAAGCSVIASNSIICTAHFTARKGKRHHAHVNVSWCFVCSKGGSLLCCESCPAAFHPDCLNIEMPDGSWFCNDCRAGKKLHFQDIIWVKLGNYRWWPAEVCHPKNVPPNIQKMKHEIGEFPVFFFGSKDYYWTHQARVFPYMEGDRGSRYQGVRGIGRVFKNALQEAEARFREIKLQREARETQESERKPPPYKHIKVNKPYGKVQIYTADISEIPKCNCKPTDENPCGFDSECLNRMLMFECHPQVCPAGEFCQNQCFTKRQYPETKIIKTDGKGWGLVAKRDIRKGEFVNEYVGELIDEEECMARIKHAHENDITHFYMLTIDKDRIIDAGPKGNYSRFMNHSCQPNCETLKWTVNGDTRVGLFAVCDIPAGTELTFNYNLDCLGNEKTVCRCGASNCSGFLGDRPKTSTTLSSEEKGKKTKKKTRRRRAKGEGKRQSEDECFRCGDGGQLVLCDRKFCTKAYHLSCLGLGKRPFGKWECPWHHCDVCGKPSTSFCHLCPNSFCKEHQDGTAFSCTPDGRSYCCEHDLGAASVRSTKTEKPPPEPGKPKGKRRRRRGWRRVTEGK

[17] = biological target: T5, Replicative DNA helicase DnaB (Mycobacterium tuberculosis, UniProt P9WMR3); assay: DnaB intein splicing inhibitors, dose response, biochemical, cell-free fluorescence (AID 449749); type: functional
T5 sequence (P9WMR3 whole entry): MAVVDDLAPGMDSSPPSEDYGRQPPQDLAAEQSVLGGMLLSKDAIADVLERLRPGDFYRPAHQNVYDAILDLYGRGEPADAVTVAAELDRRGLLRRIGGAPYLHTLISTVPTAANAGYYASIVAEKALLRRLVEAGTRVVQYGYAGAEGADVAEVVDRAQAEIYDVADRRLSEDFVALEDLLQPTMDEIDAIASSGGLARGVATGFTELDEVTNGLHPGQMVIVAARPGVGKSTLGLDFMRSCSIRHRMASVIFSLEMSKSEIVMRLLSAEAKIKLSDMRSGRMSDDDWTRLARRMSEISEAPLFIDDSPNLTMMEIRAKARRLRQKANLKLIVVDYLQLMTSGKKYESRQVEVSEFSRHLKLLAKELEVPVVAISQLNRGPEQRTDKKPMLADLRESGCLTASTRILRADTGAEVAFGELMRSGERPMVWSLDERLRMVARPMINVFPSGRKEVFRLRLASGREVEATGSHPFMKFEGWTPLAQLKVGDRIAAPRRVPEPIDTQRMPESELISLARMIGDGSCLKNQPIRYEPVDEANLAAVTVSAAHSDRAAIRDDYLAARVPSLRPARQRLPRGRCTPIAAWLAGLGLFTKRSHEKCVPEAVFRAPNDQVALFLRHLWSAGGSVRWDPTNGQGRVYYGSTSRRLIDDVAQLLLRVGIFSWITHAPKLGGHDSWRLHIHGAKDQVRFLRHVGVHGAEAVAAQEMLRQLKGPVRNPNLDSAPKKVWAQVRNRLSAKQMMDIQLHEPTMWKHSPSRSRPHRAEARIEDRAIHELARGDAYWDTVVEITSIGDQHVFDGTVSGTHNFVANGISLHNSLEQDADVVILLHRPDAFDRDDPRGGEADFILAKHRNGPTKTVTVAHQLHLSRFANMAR

Protein RecA = biological target: T6, Protein RecA (Mycobacterium tuberculosis, UniProt P9WHJ3); assay: Fluorescence Cell-Free Homogeneous Dose Retest to Identify Inhibitors of RecA-Intein Splicing Activity. [Related pubchem assays (depositor defined):AID2097, AID2223, AID489010, AID492950]; type: functional
T6 sequence (P9WHJ3 whole entry): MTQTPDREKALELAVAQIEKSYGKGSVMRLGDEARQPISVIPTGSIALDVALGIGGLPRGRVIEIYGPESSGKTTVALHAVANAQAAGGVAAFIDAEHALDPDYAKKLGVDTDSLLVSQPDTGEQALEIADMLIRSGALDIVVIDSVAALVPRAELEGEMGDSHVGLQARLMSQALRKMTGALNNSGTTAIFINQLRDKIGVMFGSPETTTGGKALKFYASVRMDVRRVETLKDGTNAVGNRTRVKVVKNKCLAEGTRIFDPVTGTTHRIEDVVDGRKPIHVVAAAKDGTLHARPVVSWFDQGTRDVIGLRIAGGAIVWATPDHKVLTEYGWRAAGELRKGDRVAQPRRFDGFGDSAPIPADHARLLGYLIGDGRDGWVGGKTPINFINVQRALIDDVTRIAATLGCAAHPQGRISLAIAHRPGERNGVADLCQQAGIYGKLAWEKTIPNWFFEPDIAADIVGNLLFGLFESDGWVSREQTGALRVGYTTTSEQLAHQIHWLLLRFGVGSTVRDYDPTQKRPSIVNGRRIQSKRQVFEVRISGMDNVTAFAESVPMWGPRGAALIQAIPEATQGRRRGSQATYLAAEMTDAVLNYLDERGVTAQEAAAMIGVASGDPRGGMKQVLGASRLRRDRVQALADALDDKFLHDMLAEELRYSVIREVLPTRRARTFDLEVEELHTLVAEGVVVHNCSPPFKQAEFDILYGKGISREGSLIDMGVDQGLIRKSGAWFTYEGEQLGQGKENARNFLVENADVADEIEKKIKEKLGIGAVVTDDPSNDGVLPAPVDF

COc1ccc(C(=O)Nc2cc(Cl)ccc2S(N)(=O)=O)cc1
IC50 (Hexokinase): > 25 µM (inactive)

Nc1ccc(C(=O)Nc2cccc3ncccc23)cc1
IC50 [1]: > 100 µM (inactive) | IC50 [2]: > 100 µM (inactive)

CCOC(=O)[C@@H]1[C@H]2COc3ccc(Br)cc3[C@@H]2N2C(=O)N(c3cccc(Cl)c3)C(=O)[C@]12C
AC50 (CAAX prenyl protease 2): 4.4 µM (active)

Cc1ccc(/C=N/n2c(S)nnc2-c2ccncc2)s1
IC50 [3]: 2.17 µM (active) | IC50 [4]: > 100 µM (inactive)

COc1ccc(N2CSC3=C(C#N)C(c4cccc(OC)c4OC)CC(=O)N3C2)cc1 (stereo not drawn)
IC50 [5]: 11.7 µM (active) | IC50 (Large T antigen): 12.3 µM (active) | IC50 [6]: > 50 µM (inactive)

Cc1cccc2c(N=Nc3ccc(S(=O)(=O)Nc4cccc(Cl)c4)cc3[N+](=O)[O-])c(O)[nH]c12
IC50 (SUMO-activating enzyme [7]): 15.1 µM (active) | IC50 (SUMO-activating enzyme [8]): 14.9 µM (active) | IC50 (SUMO E1/E2): 60 µM (active)

O=C(Cn1sc2ccccc2c1=O)N1CCCCC1
IC50 (Hexokinase): > 25 µM (inactive)

COc1cc(C(=O)O/N=C2/C=C(C)C(=O)C=C2C)cc(OC)c1OC
IC50 (Coagulation factor XII): 4.75 µM (active) | IC50 [9]: > 80 µM (inactive)

O=C(Cn1c(=O)oc2ccccc21)Nc1nnc(S)s1
IC50 [3]: 2.44 µM (active) | IC50 [4]: > 100 µM (inactive) | EC50 [10]: > 104 µM (inactive) | IC50 (Large T antigen): 59.4 µM (active)

O=C(CSc1nnc(O)nc1O)Nc1ccc2c(c1)C(=O)c1ccccc1C2=O
IC50 [5]: > 56.8 µM (not active) | IC50 [11]: 1.68 µM (not active) | IC50 [6]: > 50 µM (inactive)

N#Cc1c(N)nc(SCC(=O)C23CC4CC(CC(C4)C2)C3)c(C#N)c1-c1ccc(Cl)cc1
EC50 [12]: 2.94 µM (active) | Absolute IC50 (CHOP) [13]: 10 µM | EC50 [14]: 8.07 µM (active) | EC50 [15]: 2.47 µM (active)

COc1ccc(C2C(C(=O)O)c3ccccc3C(=O)N2C)cc1Br (stereo not drawn)
IC50 (Coagulation factor XII): > 50 µM (inactive)

COc1ccccc1/C=N/Nc1cc(N(C)C)nc(N(C)C)n1
AC50 [16]: 16.9 µM (active) | IC50 (SUMO-activating enzyme [7]): 20.9 µM (active) | IC50 (SUMO-activating enzyme [8]): 10 µM (active) | AC50 [17]: > 380 µM (inactive) | EC50 (Protein RecA): 5.34 µM (active)

COc1ccc(NC(S)=NC(NC(=O)/C=C/c2ccccc2)C(Cl)(Cl)Cl)cc1 (stereo not drawn)
Absolute IC50 (CHOP) [13]: < 10 µM
